One assay concerns Sprague-Dawley rats. Kind of assay: Insulinotropic action during intravenous glucose challenge in rats. The following applies: 30 pmol/kg/min i.v. The format is in vivo, rat.
Another assay has as its system diabetic db/db mice. Kind of assay: Plasma glucose lowering in diabetic db/db mice, dose response. The format is in vivo, mouse.

With GLP-1 [7-36]NH2, the “Increase of 60-min insulin AUC versus saline” value in the assay on Sprague-Dawley rats (n.s. versus saline) came to 20%. Besides, the “Plasma glucose after glucose injection” value in the assay on Sprague-Dawley rats (saline 21.7) turned out to be 23.7 mM. Besides, in the assay on Sprague-Dawley rats (saline 987±39), the “60-min glucose AUC” value was determined as 1096 ± 68 mM·min. Moreover, the “Glucose-lowering ED50” value in the assay with diabetic db/db mice (diabetic db/db mice) was found to be 20.6 µg.
Regarding “Leu^14, Phe^25 1-28 exendin-4 (HGEGTFTSDLSKQLEEEAVRLAIEFLKN) [AC3177, a shortened analog of exendin 4]”, the “glucose lowering activity compared with exendin 4” value in the assay on diabetic db/db mice (model not stated at b253) is reported as “nearly equipotent activity to exendin 4”.

The values are drawn from patent US20110281798A1, “Methods for Lowering Plasma Glucagon with Exendins and Exendin Agonist Analogs” (AMYLIN PHARMACEUTICALS, INC., priority 1999, published 2011).
